Test results published in US9540397B2, “BACE1 inhibitors” (Hoffmann-La Roche Inc., priority 2014, dated 2017).

What was measured:
[1] = test system: Aβ40 in brain of wild-type mice; test: Lowering of Aβ40 in brain of wild-type mice; format: in vivo; conditions: Mus musculus, po; female C57Bl/6J mice, 30 mg/kg per os, 4 h; brain Aβ40 related to the value in the vehicle group; read-out: Aβ40 (wt mice, brain)
Experimental: Lowering of Aβ40 in Brain of Wild-Type Mice:
Animals and Housing Conditions.
Animals were maintained in a 12/12 h light/dark cycle, with lights starting at 6 a.m., and experiments were conducted during the light phase. Animal housing and experimental procedures were in line with ethical and legal guidelines and were authorized by local veterinary authorities.
Experiment. Female C57Bl/6J mice were treated with a dose of 30 mg/kg of the compounds, 3-4 animals per treatment group. The test compound was dissolved in 5% EtOH, 10% Solutol, and was applied per os at 10 mL/kg. After 4 h, the animals were sacrificed and brain and plasma were collected. The brain was cut into halves and immediately frozen on dry ice. Brain was used for measurement of Aβ40 and plasma was used for determination of compound exposure. […] Brain tissue was homogenized in 2% DEA buffer in a Roche MagnaLyser (20″, 4000 rpm) and subsequently centrifuged for 1 h at 100000 g. DEA was reduced to 0.2% in 50 mM NaCl and one-half of the DEA lysate was passed over an Oasis Solid phase extraction plate (Waters; cat. no. 186000679), which had been activated with MeOH and equilibrated in dH2O (1 mL each). After washes in 10% and 30% MeOH (1 mL each), the Aβ-peptides were eluted in 0.8 mL of 2% NH4OH in 90% MeOH. The eluate was dried over a N2 flow, and the dried sample was reconstituted in 30 μL of AlphaLISA assay buffer. Aβ40 was determined by an AlphaLISA assay (Perkin-Elmer). In a white 96-well, half area microplate (Perkin-Elmer cat. no. 6005561), 20 μL of the reconstituted sample were mixed with 5 μL of biotinylated BAP-24 (specific for C-terminus of Aβ40) (Brockhaus, M.; Grunberg, J.; Rohrig, S.; Loetscher, H.; Wittenburg, N.; Baumeister, R.; Jacobsen, H.; Haass, C. Caspasemediated cleavage is not required for the activity of presenilins in amyloidogenesis and NOTCH signaling. NeuroReport 1998, 9, 1481-1486.) stock=4.4 mg/mL, f.c.5.5 μg/mL), and 5 μL 252Q6 acceptor beads (252Q6 antibody, Invitrogen AMB0062) had been previously conjugated with AlphaLISA Acceptor beads (Perkin-Elmer cat. no. 6772002); final dilution 1:500). The mix was incubated for 1 h at RT in the dark. Then 20 μL of Streptavin-coated Donor Beads (Perkin-Elmer cat. no. 6760002, final dilution 1:125) were added and this final mix was incubated in the dark for another 30 min at RT before RFU was measured in an AlphaScreen Reader (Perkin-Elmer Envision 2104). The value obtained for Aβ40 in the treated animals was related to the value in the vehicle group and is given in %. Alternatively a commercial ELISA was used for Aβ40 determination (Wako ELISA: (“Human/Rat β Amyloid (40) ELISA kit Wako II”; cat nr. 294-64701) following the manufacture's instruction. Also here the Aβ-lowering efficacy was calculated as percentage of the vehicle group.

[2] = molecular target: T1, BACE1 (Homo sapiens, UniProt P56817); test: Cellular Aβ-lowering assay (Abeta 40 AlphaLISA, HEK293 APP cells); format: cell-based; conditions: 18-20 hrs incubation, Aβ40 in culture supernatant, read-out: BACE1 cell act. Aβ40 IC50
T1 construct: endogenous in cells; host or cells: HEK293 APP cells
Experimental: Cellular Aβ-lowering assay:
The Abeta 40 AlphaLISA Assay can be used. The HEK293 APP cells were seeded in 96 well Microtiter plates in cell culture medium (Iscove's, plus 10% (v/v) fetal bovine serum, penicillin/streptomycin) to about 80% confluency and the compounds were added at a 3× concentration in ⅓ volume of culture medium (final DMSO concentration was kept at 1% v/v). After 18-20 hrs incubation at 37° C. and 5% CO2 in a humidified incubator, the culture supernatants were harvested for the determination of AP 40 concentrations using Perkin-Elmer Human Amyloid beta 1-40 (high specificity) Kit (Cat#AL275C).
In a Perkin-Elmer White Optiplate-384 (Cat#6007290), 2 ul culture supernatants were combined with 2 μl of a 10× AlphaLISA Anti-hAβ Acceptor beads+Biotinylated Antibody Anti-Aβ 1-40 Mix ([…]/5 nM). After 1 hour room temperature incubation, 16 μl of a 1.25× preparation of Streptavidin (SA) Donor beads (25 μg/mL) were added and incubated for 30 minutes in the Dark. Light Emission at 615 nm was then recorded using EnVision-Alpha Reader. Levels of Aβ 40 in the culture supernatants were calculated as percentage of maximum signal (cells treated with 1% DMSO without inhibitor). The IC50 values were calculated using the Excel XLfit software.

T1 sequence (P56817 46-501): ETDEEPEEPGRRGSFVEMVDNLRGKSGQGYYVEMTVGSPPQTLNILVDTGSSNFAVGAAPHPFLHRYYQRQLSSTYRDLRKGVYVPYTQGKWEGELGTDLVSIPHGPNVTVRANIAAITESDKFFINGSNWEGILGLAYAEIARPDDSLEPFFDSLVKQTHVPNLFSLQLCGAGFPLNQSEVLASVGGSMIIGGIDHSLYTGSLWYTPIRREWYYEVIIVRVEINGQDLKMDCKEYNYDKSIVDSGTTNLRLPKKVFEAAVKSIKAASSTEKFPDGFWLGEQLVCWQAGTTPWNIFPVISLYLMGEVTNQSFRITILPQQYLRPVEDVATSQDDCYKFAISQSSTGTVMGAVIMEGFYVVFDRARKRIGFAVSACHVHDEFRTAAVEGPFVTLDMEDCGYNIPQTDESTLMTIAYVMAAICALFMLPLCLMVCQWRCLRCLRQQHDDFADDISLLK

Structure (SMILES) | IC50 [2] [µM] | response vs control in vivo at 30 mg/kg [1] [%]
CC1(C)C(N)=N[C@](C)(c2nc(NC(=O)c3ncc(C#N)cc3Cl)ccc2F)[C@H]2CCN=[S@]21=O [Example 25BA, N-(6-((3aR,4R,8S)-6-amino-4,7,7-trimethyl-8-oxido-3,3a,4,7-tetrahydro-2H-isothiazolo[1,5-a][1,4]thiazin-4-yl)-5-fluoropyridin-2-yl)-3-chloro-5-cyanopicolinamide] | 0.0155 | 117
CC1(C)C(N)=N[C@](C)(c2nc(NC(=O)c3ncc(OC(F)F)cc3Cl)ccc2F)[C@H]2CC3(CC3)CN=[S@@]21=O [Example 50AA, N-(6-((4aR,5R,9R)-7-amino-5,8,8-trimethyl-9-oxido-4,4a,5,8-tetrahydro-2H-spiro[[1,4]thiazino[2,1-f][1,2]thiazine-3,1′-cyclopropan]-5-yl)-5-fluoropyridin-2-yl)-3-chloro-5-(difluoromethoxy)picolinamide] | 0.0159 | 117
COc1cnc(C(=O)Nc2ccc(F)c([C@@]3(C)N=C(N)C(C)(C)[S@]4(=O)=NCCC[C@H]34)n2)cn1 [Example 2BA, N-(6-((4aR,5R,9S)-7-amino-5,8,8-trimethyl-9-oxido-2,3,4,4a,5,8-hexahydro-[1,4]thiazino[2,1-f][1,2]thiazin-5-yl)-5-fluoropyridin-2-yl)-5-methoxypyrazine-2-carboxamide] | 0.0217 | 87
Cc1cc(Cl)cnc1C(=O)Nc1ccc(F)c([C@@]2(C)N=C(N)C(C)(C)[S@@]3(=O)=NCC(F)(F)C[C@H]23)n1 [Example 42AA, N-(6-((4aR,5R,9R)-7-amino-3,3-difluoro-5,8,8-trimethyl-9-oxido-2,3,4,4a,5,8-hexahydro-[1,4]thiazino[2,1-f][1,2]thiazin-5-yl)-5-fluoropyridin-2-yl)-5-chloro-3-methylpicolinamide] | 0.0194 | 85
Cc1cc(F)cnc1C(=O)Nc1ccc(F)c([C@@]2(C)N=C(N)C(C)(C)[S@@]3(=O)=NCCC[C@H]23)n1 [Example 4AA, N-(6-((4aR,5R,9R)-7-amino-5,8,8-trimethyl-9-oxido-2,3,4,4a,5,8-hexahydro-[1,4]thiazino[2,1-f][1,2]thiazin-5-yl)-5-fluoropyridin-2-yl)-5-fluoro-3-methylpicolinamide] | 0.0181 | 80
Cc1c(C(=O)Nc2ccc(F)c([C@@]3(C)N=C(N)C(C)(C)[S@@]4(=O)=NCCC[C@H]34)n2)nc2ccc(Cl)cn12 [Example 6AA, N-(6-((4aR,5R,9R)-7-amino-5,8,8-trimethyl-9-oxido-2,3,4,4a,5,8-hexahydro-[1,4]thiazino[2,1-f][1,2]thiazin-5-yl)-5-fluoropyridin-2-yl)-6-chloro-3-methylimidazo[1,2-a]pyridine-2-carboxamide] | 0.0285 | 103
COc1cnc(C(=O)Nc2ccc(F)c([C@@]3(C)N=C(N)C(C)(C)[S@@]4(=O)=NCCC[C@H]34)n2)cn1 [Example 2AA, N-(6-((4aR,5R,9R)-7-amino-5,8,8-trimethyl-9-oxido-2,3,4,4a,5,8-hexahydro-[1,4]thiazino[2,1-f][1,2]thiazin-5-yl)-5-fluoropyridin-2-yl)-5-methoxypyrazine-2-carboxamide] | 0.0197 | 83

These reach a lower IC50 [2]. Values come first.

IC50 [2] [µM] | Structure (SMILES) | response vs control in vivo at 30 mg/kg [1] [%]
0.01 | Cc1cc(F)cnc1C(=O)Nc1ccc(F)c([C@@]2(C)N=C(N)C(C)(C)[S@@]3(=O)=NCC[C@@H]23)n1 [Example 10AB, N-(6-((3aS,4R,8R)-6-amino-4,7,7-trimethyl-8-oxido-3,3a,4,7-tetrahydro-2H-isothiazolo[1,5-a][1,4]thiazin-4-yl)-5-fluoropyridin-2-yl)-5-fluoro-3-methylpicolinamide] | 71
0.0001 | CC1(C)C(N)=N[C@](C)(c2nc(NC(=O)c3ncc(C#N)cc3Cl)ccc2F)[C@H]2CC3(CC3)CN=[S@@]21=O [Example 49AA, N-(6-((4aR,5R,9R)-7-amino-5,8,8-trimethyl-9-oxido-4,4a,5,8-tetrahydro-2H-spiro[[1,4]-thiazino[2,1-f][1,2]thiazine-3,1′-cyclopropan]-5-yl)-5-fluoropyridin-2-yl)-3-chloro-5-cyanopicolinamide] | 106
0.0063 | CC1(C)C(N)=N[C@](C)(c2nc(NC(=O)c3ccc(OC(F)F)cn3)ccc2F)[C@@H]2CCN=[S@@]21=O [Example 14AB, N-(6-((3aS,4R,8R)-6-amino-4,7,7-trimethyl-8-oxido-3,3a,4,7-tetrahydro-2H-isothiazolo[1,5-a][1,4]thiazin-4-yl)-5-fluoropyridin-2-yl)-5-(difluoromethoxy)picolinamide] | 61
0.0027 | CC1(C)C(N)=N[C@](C)(c2nc(NC(=O)c3ccc(OC(F)F)cn3)ccc2F)[C@H]2CCCN=[S@@]21=O [Example 7AA, N-(6-((4aR,5R,9R)-7-amino-5,8,8-trimethyl-9-oxido-2,3,4,4a,5,8-hexahydro-[1,4]thiazino[2,1-f][1,2]thiazin-5-yl)-5-fluoropyridin-2-yl)-5-(difluoromethoxy)picolinamide] | 65
0.0149 | Cc1cc(C#N)cnc1C(=O)Nc1ccc(F)c([C@@]2(C)N=C(N)C(C)(C)[S@]3(=O)=NCC[C@H]23)n1 [Example 9BA, N-(6-((3aR,4R,8S)-6-amino-4,7,7-trimethyl-8-oxido-3,3a,4,7-tetrahydro-2H-isothiazolo[1,5-a][1,4]thiazin-4-yl)-5-fluoropyridin-2-yl)-5-cyano-3-methylpicolinamide] | 86
0.0005 | CC1(C)C(N)=N[C@](C)(c2nc(NC(=O)c3ncc(C#N)cc3Cl)ccc2F)[C@@H]2CCN=[S@@]21=O [Example 25AB, N-(6-((3aS,4R,8R)-6-amino-4,7,7-trimethyl-8-oxido-3,3a,4,7-tetrahydro-2H-isothiazolo[1,5-a][1,4]thiazin-4-yl)-5-fluoropyridin-2-yl)-3-chloro-5-cyanopicolinamide] | 56
0.0098 | CC1(C)C(N)=N[C@](C)(c2nc(NC(=O)c3ccc(OCF)cn3)ccc2F)[C@@H]2CCN=[S@@]21=O [Example 13AB, N-(6-((3aS,4R,8R)-6-amino-4,7,7-trimethyl-8-oxido-3,3a,4,7-tetrahydro-2H-isothiazolo[1,5-a][1,4]thiazin-4-yl)-5-fluoropyridin-2-yl)-5-(fluoromethoxy)picolinamide] | 86
0.0006 | Cc1cc(C#N)cnc1C(=O)Nc1ccc(F)c([C@@]2(C)N=C(N)C(C)(C)[S@@]3(=O)=NCC[C@@H]23)n1 [Example 9AB, N-(6-((3aS,4R,8R)-6-amino-4,7,7-trimethyl-8-oxido-3,3a,4,7-tetrahydro-2H-isothiazolo[1,5-a][1,4]thiazin-4-yl)-5-fluoropyridin-2-yl)-5-cyano-3-methylpicolinamide] | 40
